{"source": "patent US9572862B2", "about": "“Methods for promoting lipolysis and oxidation in liver and adipose tissue using catestatin” (The Regents of the University of California, priority 2012, dated 2017)", "key": {"[1]": {"assay": "Plasma CST level (ELISA) after CST administration", "assay_type": "in vivo", "settings": "WT mice on NCD, CST 5 μg/g BW i.p./day for 12 days", "description": "FIG. 1. Plasma parameters of wild-type (WT) and Chga-KO mice treated with saline or CST. (A) Plasma CST from saline or CST (5 μg/g BW, i.p./day) treated WT mice (28 week old) on normal chow (NCD) and high fat diet (60% fat for 16 weeks) as well as from Chga-KO mice (28 week old) on NCD. Body weights (B) and epididymal fat pad size normalized to body weight (C) in 28 week old WT and Chga-KO mice treated with saline or CST for 12 days. Plasma triglyceride (TG) (D), glycerol (E), non-esterified fatty acids (NEFA) (F), and leptin (G) in 28 week old WT and Chga-KO mice after treatment with saline or CST for 12 days. (H) Leptin in adipocyte culture media after treatment with saline or CST.\nAdult male (7 month old) WT (31.8±1.2 g) and Chga-KO (39.2±1.5 g) mice in the mixed genetic background (129SvJ×C57BL/6) were studied. Both genotypes were generated from the original founder carrying mixed genotype (50% 129SvJ, 50% C57BL/6) and were maintained by sibling mating. Animals were kept in a 12 hr dark/light cycle and fed standard chow ad libitum. Male C57BL/6 mice, 8 week old, were fed 60% high fat diet (D12492: Research Diets, Inc., New Brunswick) for 16 weeks before using for experiments. […]\nMice were fasted for 12 hr prior to blood draw. […] Media from the explant cultures and mouse serum were analysed for glycerol and NEFA as a measure of lipolysis. […]"}, "Ob/Ob mice": {"tested_on": "Ob/Ob mice", "assay": "CST administration to Ob/Ob mice for 16 days", "assay_type": "in vivo", "description": "FIG. 7. Effects of CST administration to DIO and Ob/Ob mice on food intake, body weight, adipose tissue weight, and lipolysis. CST (5 μg/g BW, i.p./day) or saline was administered to DIO and Ob/Ob mice for 16 days. Food intake for DIO mice (A) and Ob/Ob mice (B) was measured every other day. Percent changes in final body weight and WAT mass (as % of body weight) were determined for DIO (C) and Ob/Ob (D) mice. Plasma glycerol (E) and NEFA (F) were quantified for DIO and Ob/Ob mice at the end of CST treatment.\nAdult male (7 month old) WT (31.8±1.2 g) and Chga-KO (39.2±1.5 g) mice in the mixed genetic background (129SvJ×C57BL/6) were studied. Both genotypes were generated from the original founder carrying mixed genotype (50% 129SvJ, 50% C57BL/6) and were maintained by sibling mating. Animals were kept in a 12 hr dark/light cycle and fed standard chow ad libitum. Male C57BL/6 mice, 8 week old, were fed 60% high fat diet (D12492: Research Diets, Inc., New Brunswick) for 16 weeks before using for experiments. Male leptin-deficient (C57BL/6J-Ob/Ob) mice from the Jackson Laboratory were maintained on a standard chow diet. The Institutional Animal Care and Utilization Committee approved all procedures. Chga-KO, DIO and Ob/Ob mice were treated daily with saline or CST (5 μg/g BW, i.p.; 12 days for Chga-KO mice and 16 days for DIO and Ob/Ob mice).\nMice were fasted for 12 hr prior to blood draw. Triglycerides (TG) and non-esterified fatty acids (NEFA) were assayed using kits from Wako Diagnostics (Richmond, Va.). Glycerol was assayed using a kit from Sigma (St Louis, Mo.). Media from the explant cultures and mouse serum were analysed for glycerol and NEFA as a measure of lipolysis. ELISA kits were used to determine plasma levels of leptin, adiponectin (Millipore, Billerica, Mass.) and CST (Bachem, Torrance, Calif.). For CST assay, plasma samples and reference standards were passed through mini C18 columns and the flow-through fractions were assayed. The same kits were used for measurements in culture media."}, "[2]": {"tested_on": "STAT3 and AMPK phosphorylation", "assay": "Stat3 and AMPK signaling in adipose explants from Ob/Ob mice", "assay_type": "cell-based", "settings": "CST in vivo, leptin 1 μM ex vivo 30 min", "description": "FIG. 9. Stat3 and AMPK signaling in the adipose tissue explants from DIO and Ob/Ob mice treated with saline, CST (in vivo) and leptin (ex vivo). Explants from DIO mice (A&B) and Ob/Ob mice (C&D) were incubated with saline or leptin (1 μM) for 30 min, homogenized and immunoblotted for phospho- and total Stat3 (A&C) as well as phospho- and total AMPK signals (B&D). Results are presented as the ratio of signal strength of phospho-over total.\nAdipose tissue explants were prepared as described (42). Epididymal fat pads from 12 hr fasted WT, Chga-KO, DIO and Ob/Ob mice with or without CST treatment were collected in Kreb-Ringer-phosphate (KRP) buffer containing 10 mM Hepes and 0.5% BSA. Tissues were minced to 1-2 mm size and treated with 100 nM CST, 1 μM leptin, or saline for 30 min (for signaling analysis) or 3 hr (for lipolysis and β-oxidation assays). Explants were also treated acutely with CST, leptin, a combination, or saline. At the end, incubation media were saved for analysis of glycerol and fatty acid release. Explants were washed prior to homogenization for immunoblotting and analysis of fatty acid oxidation.\nAdipose tissue explants after treatments ex vivo and tissues from mice treated in vivo were homogenized in a buffer containing phosphatase and protease inhibitors (20 mM Tris/HCl (pH 7.5), 250 mM sucrose, 2 mM EDTA, 2 mM EGTA, 2 mM Na3VO4, 10 mM NaF, 2 mM Na4P2O7, 1 mM phenylmethylsulfonyl fluoride, 20 μg/ml leupeptin, 10 μg/ml aprotinin, and 1 μM LR-microcystin) as described (38,44). Homogenates were subjected to SDS-PAGE and immunoblotted. Primary antibodies for AMPK and Stat3 were from Cell Signaling Technology (Beverly, Mass.). The chemiluminescence kit was from Pierce (Rockford, Ill.)."}, "HFD-fed WT mice": {"tested_on": "HFD-fed WT mice", "assay": "CST treatment of HFD-fed WT mice", "assay_type": "in vivo", "text": "FIG. 12. Metabolic phenotypes in HFD-fed CST-KO mice. (A) CST-KO mice eat more 60% HFD than WT. (B) CST-KO mice gained more weight than WT. (C) Heightened glucose resistance at baseline in CST-KO mice compared to WT mice. […] Figures in parentheses indicate number of animals."}, "[3]": {"assay": "Insulin secretion in culture", "assay_type": "cell-based"}}, "note": "Entries after “also recorded” stand apart in the source; their conditions may differ. No end group written: not given here."}
{"sequence": "SSMKLSFRARAYGFRGPGPQL [CST]", "values": [{"measurement": "time plasma CST maintained at this level", "setting": "[1]", "result": "at least 4 hr"}, {"measurement": "food intake", "setting": "Ob/Ob mice; CST 5 μg/g BW i.p./day 16 days", "result": "started to level off"}, {"measurement": "adipose tissue mass", "setting": "Ob/Ob mice; CST 16 days", "result": "not reflected in any decrease in body weight or adipose tissue mass"}, {"measurement": "body weight", "setting": "Ob/Ob mice; CST 16 days", "result": "not reflected in any decrease in body weight"}, {"measurement": "plasma concentration of NEFA (lipolysis)", "setting": "Ob/Ob mice; CST 16 days", "result": "not affected"}, {"measurement": "plasma concentration of glycerol (lipolysis)", "setting": "Ob/Ob mice; CST 16 days", "result": "not affected"}, {"measurement": "STAT3 phosphorylation", "setting": "[2]", "result": "CST stimulation of STAT3 phosphorylation"}, {"measurement": "basal plasma insulin level", "setting": "HFD-fed WT mice", "result": "decreased; also recorded: reduced hyperinsulinemia"}, {"measurement": "insulin sensitivity", "setting": "HFD-fed WT mice", "result": "improvement in insulin sensitivity; also recorded: sensitive to insulin"}, {"measurement": "insulin secretion in culture", "setting": "[3]", "result": "Stimulated Insulin Secretion in Culture in a Glucose-Independent Manner"}]}
